Key:
h-GABA-A α5β3γ2 [1] = target: T1, h-GABA-A α5β3γ2 (Homo sapiens, UniProt P18507+P31644); test: [3H]flumazenil competition binding assay on membranes of HEK293 cells expressing GABAA receptors; details: Table 1; displacement of [3H]-Flumazenil (0.5 nM), HEK293 cells expressing human receptors, means of two determinations
T1 construct: expressed in transfected cells; host or cells: Xenopus laevis oocytes, micro-injected with subunit RNA
Method: The affinity of compounds at GABAA receptor subtypes was measured by competition for [3H]flumazenil (85 Ci/mmol; Roche) binding to HEK293 cells expressing rat (stably transfected) or human (transiently transfected) receptors of composition α1β3γ2, α2β3γ2, α3β3γ2 and α5β3γ2.
Cell pellets were suspended in Krebs-tris buffer (4.8 mM KCl, 1.2 mM CaCl2, 1.2 mM MgCl2, 120 mM NaCl, 15 mM Tris; pH 7.5; binding assay buffer), homogenized by polytron for ca. 20 sec on ice and centrifuged for 60 min at 4° C. (50000 g; Sorvall, rotor: SM24=20000 rpm). The cell pellets were resuspended in Krebs-tris buffer and homogenized by polytron for ca. 15 sec on ice. Protein was measured (Bradford method, Bio-Rad) and aliquots of 1 mL were prepared and stored at −80° C.
Radioligand binding assays were carried out in a volume of […] (96-well plates) which contained […] of cell membranes, [^3H]-Flumazenil at a concentration of 1 nM for α1, α2, α3 subunits and 0.5 nM for α5 subunits and the test compound in the range of […]. Nonspecific binding was defined by 10^−5 M diazepam and typically represented less than 5% of the total binding. Assays were incubated to equilibrium for 1 hour at 4° C. and harvested onto GF/C uni-filters (Packard) by filtration using a Packard harvester and washing with ice-cold wash buffer (50 mM Tris; pH 7.5). After drying, filter-retained radioactivity was detected by liquid scintillation counting. Ki values were calculated using Excel-Fit (Microsoft) and are the means of two determinations.
In a preferred embodiment the compounds of the invention are binding selective for the α5 subunit relative to the α1, α2 and α3 subunit. Representative test results, obtained by the above described assay measuring binding affinity to HEK293 cells expressing human (h) receptors, are shown in the Table below.

h-GABA-A α5β3γ2 [2] = target: T1, h-GABA-A α5β3γ2; test: Two-electrode voltage clamp electrophysiology in Xenopus oocytes expressing GABAA receptors (modulation of GABA EC20 current); format: cell-based; details: Table 1; for Efficacy (GABA) %: % modulation of GABA EC20 = 100*(Fold increase-1); for Fold increase h-GABA-A α5β3γ2 oocyte: Xenopus oocytes, GABA EC20, test compound at approximatively 30 fold its Ki
Method: Xenopus laevis oocytes at maturation stages V-VI were used for the expression of cloned mRNA encoding GABAA receptor subunits. Oocytes ready for RNA micro-injection were bought from Ecocyte, Castrop-Rauxel, Germany and stored in modified Barth's medium (composition in mM: NaCl 88, KCl 1, NaHCO3 2.4, HEPES 10, MgSO4 0.82, CaNO3 0.33, CaCl2 0.33, pH=7.5) at 20° C. until the experiment.
Oocytes were plated in 96-well plates to be used in an automated instrument (Robo-ocyte, MultiChannelSystems, Reutlingen, Germany) for microinjection and electrophysiological recordings. Approximately 50 nl of an aqueous solution containing the RNA transcripts for the subunits of the desired GABAA receptor was injected into each oocyte. RNA concentrations ranged between 0.3 and 16 ng/μl/subunit and were adjusted in pilot experiments to obtain GABA responses of a suitable size and a maximal effect of the reference modulator, Beta-CCM (3-CCM), a betacarboline negative allosteric modulator (NAM) at the GABAA receptor benzodiazepine (BZD) binding site or Midazolam, a benzodiazepine positive allosteric modulator (PAM) at the GABAA receptor benzodiazepine (BZD) binding site. The concentration of the γ2 subunit encoding RNA usually was 5- to 10-fold higher than the RNAs encoding the other subunits. Oocytes were kept in modified Barth's medium (composition in mM: NaCl 88, KCl 1, NaHCO3 4, HEPES 10, MgSO4 0.82, CaNO3 0.33, CaCl2 0.33, pH=7.5) at 20° C. until the experiment.
Electrophysiological experiments were performed on days 3 to 5 after the micro-injection of mRNA. During the experiment the oocytes were constantly superfused by a solution containing (in mM) NaCl 90, KCl 1, HEPES 5, MgCl2 1, CaCl2 1 (pH 7.4). Oocytes were impaled by two glass microelectrodes (resistance: 0.4 MQ) which were filled with a solution containing KCl 1M+K-acetate 1.5 M and voltage-clamped to −80 mV. The recordings were performed at room temperature using the Roboocyte two-electrode voltage clamp system (Multichannelsystem). After an initial equilibration period of 1.5 min GABA was added for 1.5 min at a concentration evoking approximately 20% of a maximal current response (EC20). After another rest interval of 2.5 min GABA was again added evoking a response of similar amplitude and shape. 0.5 min after the onset of this second GABA application the test compound, at a concentration corresponding to approximatively 30 fold its Ki, was added while GABA was still present. Current traces were recorded at a digitization rate of 10 Hz during and shortly before and after the GABA application.
Each compound and concentration was tested on at least 3 oocytes. Different oocytes were used for different compound concentrations. β-CCM, a negative allosteric modulator, or Midazolam, a positive allosteric modulators, were tested on a few (3-6) oocytes on each 96-well plate for a positive control at a maximally effective. β-CCM inhibited the GABA-evoked current by approximatively 50% (Fold increase 0.5), while Midazolam potentiated the GABA-induced current by approximatively 150% (Fold increase 2.5).
For the analysis, the digitized current traces of the first and second GABA response were superimposed and, if necessary, rescaled to equal maximal amplitudes. The ratio between the two responses during the time interval of test compound application was calculated point by point. The extremum of the resulting “ratio trace” was taken as the efficacy (“Fold increase”) of the compound expressed as “% modulation of GABA EC20” (100*(Fold increase-1)).

| Structure (SMILES) | Ki (h-GABA-A α5β3γ2 [1]) [nM] | Efficacy (GABA) % (h-GABA-A α5β3γ2 [2]) [%] | Fold increase h-GABA-A α5β3γ2 oocyte (h-GABA-A α5β3γ2 [2]) |
| --- | --- | --- | --- |
| CN(C)c1cnn(Cc2c(-c3ccc(Cl)cc3F)nnn2C)c(=O)c1 [Example 15, 2-[[5-(4-chloro-2-fluoro-phenyl)-3-methyl-triazol-4-yl]methyl]-5-(dimethylamino)pyridazin-3-one] | 3.8 | 48 | 1.48 |
| Cn1nnc(-c2ccc(Cl)cc2F)c1Cn1ncc(N2CCOCC2)cc1=O [Example 16, 2-[[5-(4-chloro-2-fluoro-phenyl)-3-methyl-triazol-4-yl]methyl]-5-morpholino-pyridazin-3-one] | 2.2 | 81 | 1.81 |
| Cn1nnc(-c2ccc(Cl)cc2F)c1Cn1ncc(N2CCN(C3CC3)CC2)cc1=O [Example 17, 2-[[5-(4-chloro-2-fluoro-phenyl)-3-methyl-triazol-4-yl]methyl]-5-(4-cyclopropyl-piperazin-1-yl)pyridazin-3-one] | 12 | 75 | 1.75 |
| Cc1ccc(-c2nnn(C)c2Cn2ncc(N3CCC[C@H]3C)cc2=O)cn1 [Example 18, 2-[[3-methyl-5-(6-methyl-3-pyridyl)triazol-4-yl]methyl]-5-[(2R)-2-methylpyrrolidin-1-yl]pyridazin-3-one] | 0.8 | 79 | 1.79 |
| COC[C@@H]1CCCN1c1cnn(Cc2c(-c3ccc(C)nc3)nnn2C)c(=O)c1 [Example 19, 5-[(2S)-2-(methoxymethyl)pyrrolidin-1-yl]-2-[[3-methyl-5-(6-methyl-3-pyridyl)triazol-4-yl]methyl]pyridazin-3-one] | 10.6 | 137 | 2.37 |
| Cc1nnn(-c2ccc(Cl)cc2)c1Cn1ncc(N2C[C@@H](C)O[C@@H](C)C2)cc1=O [Example 20, 2-[[3-(4-chlorophenyl)-5-methyl-triazol-4-yl]methyl]-5-[(2R,6S)-2,6-dimethylmorpholin-4-yl]pyridazin-3-one] | 8.4 | 108 | 2.08 |
| Cn1nnc(-c2ccc(Cl)cc2F)c1Cn1ncc(N2CCN(C(=O)C3CC3)CC2)cc1=O [Example 21, 2-[[5-(4-chloro-2-fluoro-phenyl)-3-methyl-triazol-4-yl]methyl]-5-[4-(cyclopropanc-carbonyl)piperazin-1-yl]pyridazin-3-one] | 8.7 | 140 | 2.4 |
| CNc1cnn(Cc2c(-c3ccc(Cl)cc3F)nnn2C)c(=O)c1 [Example 22, 2-[[5-(4-chloro-2-fluoro-phenyl)-3-methyl-triazol-4-yl]methyl]-5-(methylamino)pyridazin-3-one] | 20.8 | 45 | 1.45 |
| CCOC1CN(c2cnn(Cc3c(C)nnn3-c3ccc(Cl)cc3F)c(=O)c2)C1 [Example 23, 2-((1-(4-chloro-2-fluorophenyl)-4-methyl-1H-1,2,3-triazol-5-yl)methyl)-5-(3-ethoxyazetidin-1-yl)pyridazin-3(2H)-one] | 70 | 75 | 1.75 |
| Cc1nnn(-c2ccc(Cl)cc2F)c1Cn1ncc(N2Cc3ccccc3C2)cc1=O [Example 24, 2-[[3-(4-chloro-2-fluoro-phenyl)-5-methyl-triazol-4-yl]methyl]-5-isoindolin-2-yl-pyridazin-3-one] | 52.6 | 60 | 1.6 |
